Source: patent US6171809A, “Method and compositions for detecting luciferase biological samples” (priority 1998, dated 2001)
Where no end group is shown, it is not given here.

Key:
[1] = target: T1, human beta-2 adrenoceptor (Homo sapiens, UniProt P07550); assay: Compound screening, renilla luciferase readout, CRE/firefly/V2 and CRE/ren/beta2 cells, beta2-adrenoceptor, Example 3; type: cell-based
T1 construct: expressed in transfected cells; host or cells: CHO (Chinese hamster ovary) cells stably carrying a CRE-renilla luciferase reporter
T1 sequence (P07550 whole entry): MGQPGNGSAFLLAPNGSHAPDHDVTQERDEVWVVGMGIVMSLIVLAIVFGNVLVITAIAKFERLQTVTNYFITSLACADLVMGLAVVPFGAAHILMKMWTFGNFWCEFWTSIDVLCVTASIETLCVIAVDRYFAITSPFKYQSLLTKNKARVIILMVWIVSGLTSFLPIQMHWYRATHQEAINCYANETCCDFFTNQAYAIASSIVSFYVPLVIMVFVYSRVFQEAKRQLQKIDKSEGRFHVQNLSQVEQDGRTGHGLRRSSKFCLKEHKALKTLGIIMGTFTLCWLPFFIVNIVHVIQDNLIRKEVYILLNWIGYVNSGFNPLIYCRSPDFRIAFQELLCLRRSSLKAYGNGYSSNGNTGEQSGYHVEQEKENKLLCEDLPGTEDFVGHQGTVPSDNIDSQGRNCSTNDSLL
Method: (§1) Stable mammalian cell lines transfected with c-AMP responsive reporter genes containing either the firefly or renilla luciferase reporter proteins (CRE-firefly and CRE-ren) were generated.
(§2) These receptors are members of the super family of G-protein coupled receptors which interact with the stimulatory G-protein alpha unit.
Firefly luciferase and/or renilla luciferase producing CHO (Chinese hamster ovary) cells are cultured in tissue culture flasks and grown to 90% confluency. Twenty-four hours before the assay, the cells are quiesced in serum-free medium containing 1 mg/ml BSA (bovine serum albumin). Immediately prior to the assay, cells are removed with HBSS/EDTA (Hanks balanced salt solution containing EDTA), centrifuged and resuspended in 10 ml phenol red-free and serum-free medium supplemented with 1 mg/ml BSA. Next, the cells are plated into a 96 well microtiter plate at 90 μl/well and returned to the incubator. After 1 hour, 10 μl of the test compound, made up in either water or phenol red-free medium, is added. The microplates then are further incubated for 4 hours. Finally, the firefly luciferase detection reagent is made up and 100 μl of this detection solution is added to each well. After 10 minutes, the microplate is counted for firefly luciferase activity. […] The plate is left for 15 minutes in the dark and then counted for renilla luciferase activity. […]

adenylcyclase [2] = assay: Forskolin dose response, renilla luciferase reporter (CRE-ren CHO cells mixed with CRE-firefly cells), Example 1; type: cell-based, Chinese hamster ovary
Method: A kit for the sequential detection of firefly luciferase and renilla luciferase was prepared which consisted of a firefly luciferase assay reagent and a renilla luciferase assay reagent. The renilla luciferase reagent consisted of 5 μM of coelenterazine in 2 mM EDTA buffer with a pH 7.5. Stable mammalian cell lines transfected with c-AMP responsive reporter genes containing either the firefly or renilla luciferase reporter proteins (CRE-firefly and CRE-ren) were generated. Firefly luciferase and/or renilla luciferase producing CHO (Chinese hamster ovary) cells are cultured in tissue culture flasks and grown to 90% confluency. Twenty-four hours before the assay, the cells are quiesced in serum-free medium containing 1 mg/ml BSA (bovine serum albumin). Immediately prior to the assay, cells are removed with HBSS/EDTA (Hanks balanced salt solution containing EDTA), centrifuged and resuspended in 10 ml phenol red-free and serum-free medium supplemented with 1 mg/ml BSA. Next, the cells are plated into a 96 well microtiter plate at 90 μl/well and returned to the incubator. After 1 hour, 10 μl of the test compound, made up in either water or phenol red-free medium, is added. The microplates then are further incubated for 4 hours. Finally, the firefly luciferase detection reagent is made up and 100 μl of this detection solution is added to each well. After 10 minutes, the microplate is counted for firefly luciferase activity. Next, to each well, 100 μl/well of 5 μM of coelenterazine in 2 mM EDTA buffer solution is added. The plate is left for 15 minutes in the dark and then counted for renilla luciferase activity. CRE-ren cells were stimulated with 10 μM forskolin, a compound which directly activates adenylcyclase to cause an increase in the level of […] cAMP. […] The assay plates were counted in a TopCount™ Luminescence Counter (Packard Instrument Company) at 15 or 160 minutes after reagent addition. […] Furthermore, renilla luminescence generated using the composition of this invention, is 10-fold brighter than the firefly luciferase generated light signal.

adenylcyclase [3] = assay: Forskolin dose response, firefly luciferase reporter (CRE-firefly CHO cells mixed with CRE-ren cells), Example 1; type: cell-based, Chinese hamster ovary; conditions: 15 and 160 minutes after reagent addition; FIG. 1
Method: A kit for the sequential detection of firefly luciferase and renilla luciferase was prepared which consisted of a firefly luciferase assay reagent and a renilla luciferase assay reagent. The firefly luciferase reagent consisted of AMP, EDTA, firefly luciferin, ATP, DTT, phenylacetic acid and oxalic acid as originally described in U.S. Pat. No. 5,618,682. Stable mammalian cell lines transfected with c-AMP responsive reporter genes containing either the firefly or renilla luciferase reporter proteins (CRE-firefly and CRE-ren) were generated. Firefly luciferase and/or renilla luciferase producing CHO (Chinese hamster ovary) cells are cultured in tissue culture flasks and grown to 90% confluency. Twenty-four hours before the assay, the cells are quiesced in serum-free medium containing 1 mg/ml BSA (bovine serum albumin). […] After 10 minutes, the microplate is counted for firefly luciferase activity. […] The plate is left for 15 minutes in the dark and then counted for renilla luciferase activity. […] The assay plates were counted in a TopCount™ Luminescence Counter (Packard Instrument Company) at 15 or 160 minutes after reagent addition. […] Furthermore, renilla luminescence generated using the composition of this invention, is 10-fold brighter than the firefly luciferase generated light signal.

CHO cells = assay: Compound screening, endogenous response of CHO cells (CRE/firefly/V2 and CRE/ren/beta2), Example 3; type: cell-based, Chinese hamster ovary; conditions: for firefly luciferase response (endogenous): firefly luciferase detection reagent; for agonist activity at these cells: CRE/firefly/V2 and CRE/ren/beta2 cells
Method: as §1, §2
Firefly luciferase and/or renilla luciferase producing CHO (Chinese hamster ovary) cells are cultured in tissue culture flasks and grown to 90% confluency. Twenty-four hours before the assay, the cells are quiesced in serum-free medium containing 1 mg/ml BSA (bovine serum albumin). Immediately prior to the assay, cells are removed with HBSS/EDTA (Hanks balanced salt solution containing EDTA), centrifuged and resuspended in 10 ml phenol red-free and serum-free medium supplemented with 1 mg/ml BSA. Next, the cells are plated into a 96 well microtiter plate at 90 μl/well and returned to the incubator. After 1 hour, 10 μl of the test compound, made up in either water or phenol red-free medium, is added. The microplates then are further incubated for 4 hours. Finally, the firefly luciferase detection reagent is made up and 100 μl of this detection solution is added to each well. After 10 minutes, the microplate is counted for firefly luciferase activity. Next, to each well, 100 μl/well of 5 μM of coelenterazine in 2 mM EDTA buffer solution is added. The plate is left for 15 minutes in the dark and then counted for renilla luciferase activity.
CRE/firefly/V2 and CRE/ren/beta2 cells were mixed and plated into individual wells of a black 96-well ViewPlate and a range of compounds were applied to the cells.

[4] = target: T1, human beta-2 adrenoceptor; assay: beta2-adrenoceptor dose response, renilla luciferase readout after renilla detection reagent (CRE/ren/beta2 cells mixed with CRE/firefly/V2 cells), Example 2; type: cell-based
Method: as §1, §2
Firefly luciferase and/or renilla luciferase producing CHO (Chinese hamster ovary) cells are cultured in tissue culture flasks and grown to 90% confluency. Twenty-four hours before the assay, the cells are quiesced in serum-free medium containing 1 mg/ml BSA (bovine serum albumin). Immediately prior to the assay, cells are removed with HBSS/EDTA (Hanks balanced salt solution containing EDTA), centrifuged and resuspended in 10 ml phenol red-free and serum-free medium supplemented with 1 mg/ml BSA. Next, the cells are plated into a 96 well microtiter plate at 90 μl/well and returned to the incubator. After 1 hour, 10 μl of the test compound, made up in either water or phenol red-free medium, is added. The microplates then are further incubated for 4 hours. Finally, the firefly luciferase detection reagent is made up and 100 μl of this detection solution is added to each well. After 10 minutes, the microplate is counted for firefly luciferase activity. […] The plate is left for 15 minutes in the dark and then counted for renilla luciferase activity.

With `NC(=O)CC[C@@H]1NC(=O)[C@H](Cc2ccccc2)NC(=O)[C@H](Cc2ccc(O)cc2)NC(=O)CCSSC[C@@H](C(=O)N2CCC[C@H]2C(=O)N[C@H](CCCN=C(N)N)C(=O)NCC(N)=O)NC(=O)[C@H](CC(N)=O)NC1=O` [desmopressin] the “luminescence signal following addition of renilla luciferase detection reagent” value [1] was “not significantly above basal”.

In the case of `C=C[C@@]1(C)CC(=O)[C@]2(O)[C@@]3(C)[C@@H](O)CCC(C)(C)[C@@H]3[C@H](O)[C@H](OC(C)=O)[C@@]2(C)O1` [forskolin], the “renilla luciferase luminometric response” value (adenylcyclase [2]; 15 minutes after reagent addition) was 3.5×10^6, the “renilla luciferase luminometric response” value (adenylcyclase [2]; 160 minutes after reagent addition) was 1.8×10^6 and the “EC50 for forskolin stimulation of adenyl cyclase” value (adenylcyclase [2]; renilla response, 15 versus 160 minutes) was “remains similar”. For the same molecule, the “nature of the firefly luminescence” value (adenylcyclase [3]) was “identical at 15 and 160 minutes after reagent addition”, the “action on CHO cells (conclusion)” value (CHO cells) was “act on CHO cells to generate an endogenous response” and the “firefly luciferase response (endogenous)” value (CHO cells) was “a firefly luciferase response was obtained”. The “luminescent signal following addition of renilla luciferase detection reagent (endogenous)” value (CHO cells) was “A luminescent signal was maintained”.

For `CC(C)C[C@H](NC(=O)[C@H](CCCCN)NC(=O)[C@H](CCCN=C(N)N)NC(=O)[C@H](C)NC(=O)[C@H](CO)NC(=O)[C@H](CCCCN)NC(=O)[C@H](CCCN=C(N)N)NC(=O)[C@H](C)NC(=O)CNC(=O)[C@@H](NC(=O)[C@H](Cc1ccccc1)NC(=O)CNC(=O)CNC(=O)[C@@H](N)Cc1ccccc1)[C@@H](C)O)C(=O)N[C@@H](C)C(=O)N[C@@H](CC(N)=O)C(=O)N[C@@H](CCC(N)=O)C(=O)O` [nociceptin], the “agonist activity at these cells” value (CHO cells) was “not agonists active at these cells”.

In the case of `NCCc1c[nH]c2ccc(O)cc12` [serotonin], the “agonist activity at these cells” value (CHO cells) was “not agonists active at these cells”.

`NC(=O)CC[C@@H]1NC(=O)[C@H](Cc2ccccc2)NC(=O)[C@H](Cc2ccc(O)cc2)NC(=O)[C@@H](N)CSSC[C@@H](C(=O)N2CCC[C@H]2C(=O)N[C@@H](CCCN=C(N)N)C(=O)NCC(N)=O)NC(=O)[C@H](CC(N)=O)NC1=O` [vasopressin] was tested, and the “stimulation of renilla luminescence” value ([4]; FIG. 2) was “did not stimulate renilla luminescence”, the “response curve after subsequent addition of renilla detection reagent” value ([4]; renilla detection reagent added to the same cells) was “flattened” and the “luminescence signal following addition of renilla luciferase detection reagent” value [1] was “not significantly above basal”.

In the case of “thyro-calcitonin (CGNLSTCMLGTYTQDFNKFHTFPQTAIGVGAP; ends and bridges not checked; cysteine pairing not given here; UniProt P01258 85-116, looked up) [CHO cells express an endogenous calcitonin receptor]”, the “action on CHO cells (conclusion)” value (CHO cells) was “act on CHO cells to generate an endogenous response”, the “firefly luciferase response (endogenous)” value (CHO cells) was “a firefly luciferase response was obtained” and the “luminescent signal following addition of renilla luciferase detection reagent (endogenous)” value (CHO cells) was “A luminescent signal was maintained”.
